Reference: patent US9896423B2, “Deuterium substituted 1-[2-(2,4-dimethyl-phenylsulfanyl)-phenyl]piperazine compound or derivatives thereof, and pharmaceutical composition and use thereof” (Jiangsu Jibeier Pharmaceutical Co. Ltd., priority 2014, dated 2018)
Values joined by “and” are separate entries in the source; they are usually repeats but may differ in a detail not shown here. Equal values may be shown once. Read-outs that look alike come from different tables or passages of the source.

How the values were obtained:
[1] = Pharmacokinetic test in rats, intravenous injection; type: in vivo, SD rats; details: for concentration at 0.25 h / concentration at 0.5 h / concentration at 1 h / concentration at 2 h / concentration at 3 h: Sprague-Dawley, intravenous, 2 mg/kg iv
Procedure: The preferred compound of the present disclosure was assessed in rats for its pharmacokinetic profile.
SD rats, male and female, weighing 150 to 250 g
Mobile phase: 10 mM ammonium formate aqueous solution:methanol=15:85
The ionization source was electrospray ionization source. The detection mode was positive mode. Multiple reaction monitoring (MRM) was used as the scanning mode. The ion reaction for the quantitative analysis was the following: m/z was 305.2\150.0 for XX, and 256.1\167.1 for diphenhydramine (the internal standard).
Four male SD rats were taken. The dosage was calculated as 5 mL/kg body weight and 2 mg/kg. XX or YY was dissolved in DMSO (3% of a total volume) and castor oil (3% of the total volume) was added to the solution, followed by agitating with a vortex mixer. Subsequently, saline was added to the mixture to the total volume to afford the intravenous injection for the rats. The injections were intravenously administered to four male SD rats. Blood from the rats' orbits was collected 3 min, 8 min, 15 min, 30 min, 1 hr, 2 hr, 3 hr, 4 hr, 6 hr, 9 hr, 12 hr and 24 hr later after the injection, respectively.
After the blood collection, the tubes were immediately gently turned upside down at least five times to ensure sufficient mixing, and placed on ice. Heparin was added for anticoagulation. The samples were centrifuged at 8000 rpm for 5 min to separate serum from erythrocyte. The serum was transferred with a pipettor to 2 mL polypropylene (PP) tubes, which were marked with the name of the compound and the time points, and stored in a refrigerator at −40° C. before LC-MS analysis. Samples with high concentrations were diluted with rat blank plasma.
2.5 μL of Meth-H2O and 5 μL of the internal standard solution (20 ng/mL, IS) were added to 50 μL of the plasma. Subsequently, 150 μL of methanol was added to the mixture to precipitate protein and the samples were then centrifuged at 13000 rpm for 5 min. The upper organic phase was taken out, filtrated with a 0.22 μM microporous membrane, and 2 μL of the sample was injected for the LC-MS analysis.

[2] = single oral dose of [14C]-labeled vortioxetine; cited from earlier work
[3] = male, rat, plasma, 2 mg/kg, individual rats, read-out: Concentrations in Plasma of Rats after Intravenous Injection
[4] = male, rat, plasma, 2 mg/kg, mean, read-out: Concentrations in Plasma of Rats after Intravenous Injection, Mean ± SD
[5] = rats, iv 2 mg/kg, individual rats, 2 mg/kg

Cmax ([1]; male, SD, rat, plasma, iv, 2 mg/kg, rats, iv 2 mg/kg, XX n = 4, YY n = 3, read-out: Cmax, Mean ± SD): 214 ± 38.9 ng/mL | MRT inf ([1]; male, SD, rat, plasma, iv, 2 mg/kg, rats, iv 2 mg/kg, XX n = 4, YY n = 3, read-out: MRT0-∞, Mean ± SD): 6.42 ± 0.19 h | Vd ([1]; male, SD, rat, plasma, iv, 2 mg/kg, rats, iv 2 mg/kg, XX n = 4, YY n = 3, read-out: Vz, Mean ± SD): 26.6 ± 0.52 L/kg | half-life ([1]; male, SD, rat, plasma, iv, 2 mg/kg, rats, iv 2 mg/kg, XX n = 4, YY n = 3, read-out: t1/2, Mean ± SD (converted)): 6.03 ± 0.27 h | AUC(0-t) ([1]; male, SD, rat, plasma, iv, 2 mg/kg, rats, iv 2 mg/kg, individual rats 1-3 (Table 11), read-out: AUC0-t): 594 ng·h/mL | AUC(0-inf) ([1]; male, SD, rat, plasma, iv, 2 mg/kg, rats, iv 2 mg/kg, individual rats, read-out: AUC0-∞): 628 ng·h/mL | Cmax ([1]; male, SD, rat, plasma, iv, 2 mg/kg, rats, iv 2 mg/kg, individual rats, read-out: Cmax): 225 ng/mL | MRT inf ([1]; male, SD, rat, plasma, iv, 2 mg/kg, rats, iv 2 mg/kg, individual rats, read-out: MRT0-∞): 6.56 h | Vd ([1]; male, SD, rat, plasma, iv, 2 mg/kg, rats, iv 2 mg/kg, individual rats, read-out: Vz): 26.3 L/kg | half-life ([1]; male, SD, rat, plasma, iv, 2 mg/kg, rats, iv 2 mg/kg, individual rats, read-out: t1/2 (converted)): 5.72 h | AUC(0-t) ([1]; male, SD, rat, plasma, iv, 2 mg/kg, rats, iv 2 mg/kg, n = 3 (Table 11), read-out: AUC0-t, Mean ± SD): 619 ± 22.2 ng·h/mL | concentration at 0.25 h [1, 3]: 78.1 ng/mL | concentration at 0.25 h [1, 4]: 137 ± 6.05 ng/mL | concentration at 0.5 h [1, 3]: 76.6 ng/mL | concentration at 0.5 h [1, 4]: 124 ± 13 ng/mL | concentration at 1 h [1, 3]: 72.2 ng/mL | concentration at 1 h [1, 4]: 94.2 ± 6.06 ng/mL | concentration at 2 h [1, 3]: 60.7 ng/mL | concentration at 2 h [1, 4]: 86.4 ± 16.8 ng/mL | concentration at 3 h [1, 3]: 49.6 ng/mL | concentration at 3 h [1, 4]: 67 ± 10.2 ng/mL | CL, Mean ± SD ([1]; rats, iv 2 mg/kg, XX n = 4, YY n = 3): 3.06 ± 0.11 L/h/k | AUC(0-t) ([1]; rats, iv 2 mg/kg, individual rats 1-3 (Table 11), 2 mg/kg): 637.9 ng·h/mL and 624.3 ng·h/mL | AUC0-∞ [1, 5]: 674.6 ng·h/mL and 660.5 ng·h/mL | CL [1, 5]: 3.19 L/h/k and 2.97 L/h/k and 3.03 L/h/k | Cmax [1, 5]: 246.0 ng/mL and 170.6 ng/mL | MRT0-∞ [1, 5]: 6.20 h and 6.50 h | Vz [1, 5]: 27.2 L/kg | t1/2 [1, 5]: 6.15 h and 6.22 h
Compound: Cc1ccc(Sc2ccccc2N2CCNCC2)c(C)c1 [YY, 1-[2-(2,4-dimethyl-phenylsulfanyl)-phenyl]piperazine]
radioactive metabolites recovered in the feces [2]: ~26% | radioactive metabolites recovered in the urine [2]: approximately 59%
